Results from the supplement of paper PMC11061612.

Assays:
Test in all cases: Bliss excess, mean over the matrix (fraction); higher = more synergy
[1] = tested on: SNU-387 (Hepatocellular Carcinoma)
Method in brief: (§1)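 After 24 hours at 37°C and 5% CO2 in 1536-well plates, cells in DMEM/F12 or RPMI plus 10% FBS received two-drug dose matrices for 72 hours. Viability came from CellTiter-Glo 2.0 luminescence and was scaled as inhibition, anchored at 0 by vehicle wells and at 1 by blank wells. Combination Emax is taken as the second-highest inhibition in the matrix, and Bliss excess as the observed combination effect less EA + EB − EA·EB, with EA and EB the single-agent effects.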

[2] = tested on: NCI-H1355 (Lung Adenocarcinoma)
Method in brief: as §1

[3] = tested on: COLO-668 (Small Cell Lung Carcinoma)
Method in brief: as §1

[4] = tested on: SKN (Other Solid Carcinomas)
Method in brief: as §1

[5] = tested on: SK-LU-1 (Lung Adenocarcinoma)
Method in brief: as §1

[6] = tested on: DU-145 (Prostate Carcinoma)
Method in brief: as §1

[7] = tested on: MOG-G-UVW (Low Grade Glioma)
Method in brief: as §1

[8] = tested on: MDA-MB-453 (Breast Carcinoma)
Method in brief: as §1

[9] = tested on: NCI-H1993 (Lung Adenocarcinoma)
Method in brief: as §1

[10] = tested on: EFO-21 (Ovarian Carcinoma)
Method in brief: as §1

[11] = tested on: A4-Fuk (B-Lymphoblastic Leukemia)
Method in brief: as §1

Compound	Bliss excess [1]	Bliss excess [2]	Bliss excess [3]	Bliss excess [4]	Bliss excess [5]	Bliss excess [6]	Bliss excess [7]	Bliss excess [8]	Bliss excess [9]	Bliss excess [10]	Bliss excess [11]
O=C(c1cc(Cc2n[nH]c(=O)c3ccccc23)ccc1F)N1CCN(C(=O)C2CC2)CC1 [Olaparib] + COc1nnc2ccc(N3CCC(c4ccc(OCCN5CCN(C)C(=O)[C@H]5C)cc4)CC3)nn12 [AZD5153] (first compound max 10 µM, 7x7, partner max 1 µM)	-0.0768	-0.11	-0.0335	-0.0557	-0.0623	-0.0708	-0.0406	-0.0483	-0.0529	-0.0719	-0.0412
Cc1nc(-c2cn3c(n2)-c2ccc(-c4cnn(C(C)(C)C(N)=O)c4)cc2OCC3)n(C(C)C)n1 [Taselisib] + O=C(Nc1ccc2[nH]nc(-c3ccncc3)c2c1)[C@@H]1CCN(CC(=O)N2CCN(c3ccc(-c4ncccn4)cc3)CC2)C1 [SCH772984] (first compound max 10 µM, 7x7, partner max 5 µM)	0.122	-0.0124	0.0737	-0.0535	0.0898	0.0551	0.0333	0.0207	0.111	0.0446	0.0883
CN(CCO)CC[C@H](CSc1ccccc1)Nc1ccc(S(=O)(=O)NC(=O)c2ccc(N3CCC([C@@H](O)c4ccccc4-c4ccc(Cl)cc4)CC3)cc2)cc1S(=O)(=O)C(F)(F)F [AZD4320] + CS(=O)(=O)CCNCc1ccc(-c2ccc3ncnc(Nc4ccc(OCc5cccc(F)c5)c(Cl)c4)c3c2)o1 [Lapatinib] (first compound max 1 µM, 7x7, partner max 10 µM)	0.0496	0.0077	0.0881	-0.0188	-0.0415	-0.028	0.0193	-0.0554	0.0682	-0.0104	-0.0065
C[C@@H]1COCCN1c1cc(C2([S@](C)(=N)=O)CC2)nc(-c2ccnc3[nH]ccc23)n1 [AZD6738] + Nc1ccn([C@@H]2O[C@H](CO)[C@@H](O)C2(F)F)c(=O)n1 [Gemcitabine] (first compound max 10 µM, 7x7, partner max 0.3 µM)	0.0597	0.0732	0.0525	0.0033	-0.0668	0.0742	0.0856	-0.0251	-0.0098	0.0847	-0.0486
C[C@@H](Nc1cc(F)cc(F)c1)c1cc(C(=O)N(C)C)cc2c(=O)cc(N3CCOCC3)oc12 [AZD8186] + CC(=O)c1c(C)c2cnc(Nc3ccc(N4CCNCC4)cn3)nc2n(C2CCCC2)c1=O [Palbociclib] (first compound max 10 µM, 7x7, partner max 10 µM)	-0.0459	0.0321	0.0261	0.0142	0.0599	0.0147	0.11	0.0491	0.0847	-0.0175	0.138
C[C@@H](Oc1cc(-c2cnn(C3CCNCC3)c2)cnc1N)c1c(Cl)ccc(F)c1Cl [Crizotinib] + Cn1cnc2c(F)c(Nc3ccc(Br)cc3Cl)c(C(=O)NOCCO)cc21 [Selumetinib] (first compound max 10 µM, 7x7, partner max 10 µM)	0.0212	-0.0223	0.0221	-0.0421	-0.0531	-0.0321	0.104	-0.0374	0.0034	-0.0233	-0.0021
C[C@@H]1COCCN1c1cc(C2([S@](C)(=N)=O)CC2)nc(-c2ccnc3[nH]ccc23)n1 [AZD6738] + C1CC(C1)(C(=O)[O-])C(=O)[O-].N.N.[Pt+2] [Carboplatin] (first compound max 10 µM, 7x7, partner max 10 µM)	-0.0308	-0.0345	0.025	-0.0766	-0.0088	-0.043	-0.0044	-0.0327	-0.0211	-0.0606	-0.0571
O=C(c1cc(Cc2n[nH]c(=O)c3ccccc23)ccc1F)N1CCN(C(=O)C2CC2)CC1 [Olaparib] + Cc1c2c(nn1C)CSCc1cc(n(C)n1)CSc1cc(c3ccccc3c1)OCCCc1c(C(=O)O)n(C)c3c-2c(Cl)ccc13 [AZD5991] (first compound max 10 µM, 7x7, partner max 1 µM)	-0.0935	-0.0595	-0.0495	-0.0407	-0.0436	-0.0348	-0.0125	-0.0038	-0.0275	-0.0533	-0.0387
C=CCn1c(=O)c2cnc(Nc3ccc(N4CCN(C)CC4)cc3)nc2n1-c1cccc(C(C)(C)O)n1 [AZD1775] + CCc1c2c(nc3ccc(O)cc13)-c1cc3c(c(=O)n1C2)COC(=O)[C@]3(O)CC [SN-38] (first compound max 1 µM, partner max 0.3 µM)	-0.0303	-0.0622	-0.0448	-0.0126	-0.133	-0.0641	0.0228	-0.0113	0.0354	-0.0193	-0.0617
O=C(c1cc(Cc2n[nH]c(=O)c3ccccc23)ccc1F)N1CCN(C(=O)C2CC2)CC1 [Olaparib] + CC1(C)CCC(CN2CCN(c3ccc(C(=O)NS(=O)(=O)c4ccc(NCC5CCOCC5)c([N+](=O)[O-])c4)c(Oc4cnc5[nH]ccc5c4)c3)CC2)=C(c2ccc(Cl)cc2)C1 [Venetoclax] (first compound max 10 µM, 7x7, partner max 1 µM)	-0.0285	-0.0524	-0.0261	-0.0516	-0.0404	-0.0254	0.001	-0.0323	-0.0397	-0.0495	-0.0118
